Target: T1, arginase
T1 construct: purified recombinant arginase
Test: enzyme inhibition kinetics with purified recombinant arginase; Dixon and Cornish-Bowden plots (IC50 […])
Assay type: biochemical, Leishmania amazonensis

**Q.** Which Ki does the source give for `O=C(/C=C/c1ccc(O)c(O)c1)OCCc1ccccc1` [CAPE, Caffeic acid phenethyl ester] here?
**A.** Its Ki is 1510 ± 40 nM.
